Results reported in ChEMBL document CHEMBL4665715, “Thienochromene derivatives inhibit pSTAT1 and pSTAT5 signaling induced by cytokines” (Bioorg Med Chem Lett, 2020).
Calls of active or inactive are those of the source. The calls are words filed in the database; no cut-off is given here.

Columns and labels:
Assay type in all cases: tissue-based
Janus Kinase (JAK) [1] = target: T1, Janus Kinase (JAK) (Homo sapiens, UniProt P52333+P23458+O60674+P29597); assay: Inhibition of JAK in human PBMC assessed as inhibition of IL2-induced STAT5 phosphorylation at 150 uM preincubated for 30 mins followed by addition IL2 stimulation and measured after 30 mins by ELISA
Janus Kinase (JAK) [2] = target: T1, Janus Kinase (JAK); assay: Inhibition of JAK in human PBMC assessed as inhibition of GM-CSF-induced STAT5 phosphorylation at 150 uM preincubated for 30 mins followed by addition […] stimulation and measured after 30 mins by ELISA
Janus Kinase (JAK) [3] = target: T1, Janus Kinase (JAK); assay: Inhibition of JAK in human PBMC assessed as inhibition of IFNalpha-induced STAT1 phosphorylation at 150 uM preincubated for 30 mins followed by addition […] stimulation and measured after 30 mins by ELISA
Janus Kinase (JAK) [4] = target: T1, Janus Kinase (JAK); assay: Inhibition of JAK in human PBMC assessed as inhibition of IL2-induced STAT5 phosphorylation preincubated for 30 mins followed by addition IL2 stimulation and measured after 30 mins by ELISA
Janus Kinase (JAK) [5] = target: T1, Janus Kinase (JAK); assay: Inhibition of JAK in human PBMC assessed as inhibition of GM-CSF-induced STAT5 phosphorylation preincubated for 30 mins followed by addition […] stimulation and measured after 30 mins by ELISA
Janus Kinase (JAK) [6] = target: T1, Janus Kinase (JAK); assay: Inhibition of JAK in human PBMC assessed as inhibition of IFNalpha-induced STAT1 phosphorylation preincubated for 30 mins followed by addition […] stimulation and measured after 30 mins by ELISA

- inhibition (Janus Kinase (JAK) [1]): Active
- inhibition (Janus Kinase (JAK) [2]): Active
- inhibition (Janus Kinase (JAK) [3]): Active
- IC50 (Janus Kinase (JAK) [4]): 12.1 µM
- IC50 (Janus Kinase (JAK) [5]): 5 µM
- IC50 (Janus Kinase (JAK) [6]): 11.9 µM
Structure (SMILES): CCOC(=O)c1cc2c(=O)oc3cc(O)ccc3c2s1
